Converted amounts (≈) assume the structure as drawn.
Legend:
Assay type in all cases: cell-based
[1] = system: human leukemic cells (CCRF-CEM cell line); assay: Cytotoxicity screen: growth inhibition of human leukemic cells; conditions: read-out: IC₅₀ (concentration giving 50% growth inhibition)
Description: See, e.g., Miller et al., in J. Med. Chem. Vol. 20, No. 3 409 (1977) and Sweeney, et al., in Cancer Research 38, 2886 (1978).
The compounds of the present invention represented by Formula I are cytostatic in that they inhibit the growth of human leukemic cells (CCRF-CEM cell line). Table 1 below gives the results of such testing of compounds representative of those in Formula I. In the Table, column 1 gives the example number of the compound and column 2 the IC₅₀ (concentration giving 50% growth inhibition) in mcg/ml.

HSV-1 = assay: Plaque-reduction study against HSV-1; conditions: HSV-1 plaque reduction
Experimental: (§1) The following plaque-reduction study provides a quantitative evaluation of inhibitors of virus multiplication and establishes the antiviral activity of a representative compound of the present invention. According to this study, susceptible cells (BSC-1, Hela, MDCK, etc.) were grown in 25 cm² Falcon flasks at 37°C in Medium 199 with 5 percent inactivated fetal bovine serum (FBS), penicillin (150 units/ml) and streptomycin (150 »g/ml). When confluent monolayers were formed, the growth medium was removed and 0.3 ml of an appropriate dilution of the virus was added to each flask. After adsorption for one hour at room temperature, the infected cell sheet was overlaid with equal parts of 1 percent Agarose and 2x Medium 199, 2.5 percent FBS, penicillin, and streptomycin. The compound to be tested was dissolved in dimethyl sulfoxide (DMSO) at a concentration of 10,000 »g/ml and an aliquot of the resulting solution was diluted to the desired concentration with the agar medium mixture. Flasks were incubated at 37°C until control flasks indicated optimum plaque size of about 2 to about 10 mm. A solution containing 10 percent formalin by volume and 2 percent sodium acetate by volume was added to each flask to inactivate the virus and fix the cell sheet to the plastic surface. The plaques were counted after staining the surrounding cell areas with crystal violet. Results from duplicate flasks at each concentration were averaged and compared with control flasks. The following degrees of inhibition against HSV-1 were observed.

HSV-2 = assay: Plaque-reduction study against HSV-2; conditions: HSV-2 plaque reduction
Experimental: as §1, with “Results from duplicate flasks at each concentration were averaged and compared with control flasks. The following degrees of inhibition against HSV-1 were observed.” left out

Friends leukemia virus = assay: CPE inhibition in SC-1 cells infected with murine leukemia virus, XC cell overlay; conditions: SC1, 120 h, SC-1 cells from a feral mouse, XC cells added after 5 days, read-out: IC₅₀
Experimental: The following procedure was used to establish the efficacy of a representative compound of the present invention against Friends leukemia virus. SC-1 cells from a feral mouse were seeded subconfluently at 2-5 x 10³ cells per well in 96 microwell plates with complete MEM media plus 2 mcg/ml polybrene overnight at 37°C under a carbon dioxide atmosphere. The medium was removed. The cultures were infected with a proper dilution of murine leukemia virus (50 mcl/well) and were allowed to adsorb for about two hours at room temperature. After adsorption, the virus containing medium was removed and replaced with fresh complete MEM, both with and without dilutions of the compound of Example 1, and reincubated at 37°C under carbon dioxide for 5 days or until the cells reached confluence. The medium was removed and the cells were exposed for 10 seconds to a UV germicidal light. XC cells from a Rous sarcoma virus induced rat tumor cell line at a concentration of 5-8 x 10⁴ cells/well were added to the irradiated SC-1 monolayers. The cultures were incubated at 37°C under carbon dioxide for three days until CPE occurred in the control wells. Cultures were fixed with formalin and stained with crystal violet. The results were scored as CPE inhibition.

With `Cc1cn([C@@H]2O[C@H](CO)[C@@H](N=[N+]=[N-])C2(F)F)c(=O)[nH]c1=O` [Example 4, β-1-(5-methyl-2,4-dioxo-1H,3H-pyrimidin-1-yl)-3-azido-2,3-dideoxy-2,2-difluororibose] the IC50 [1] was 23.4 µg/mL (≈ 77.2 µM), the Inhibition (HSV-1; concentration 25 (unit ug/ml)) was 39% and the Inhibition (HSV-2; concentration 13.5 (unit ug/ml)) was 50%.
In the case of `Nc1nc(N)c2ncn([C@@H]3O[C@H](CO)CC3(F)F)c2n1` [Example 2, β-1-(2,6-diamino-9H-purin-9-yl)-2,3-dideoxy-2,2-difluororibose], the IC50 [1] is reported as 1.9 µg/mL (≈ 6.64 µM) and the Inhibition (HSV-1; concentration 3.1 (unit ug/ml)) is reported as 27%.
`Nc1ccn([C@@H]2O[C@H](CO)CC2(F)F)c(=O)n1` [Example 1, β-1-(4-Amino-2-oxo-1H-pyrimidin-1-yl)-2,3-dideoxy-2,2-difluororibose] gave an IC50 [1] of 1.9 µg/mL (≈ 7.69 µM), an inhibition at 15 µg/mL (HSV-1; Human alphaherpesvirus 1, concentration 15 ug/ml) of 50% and an IC50 (Friends leukemia virus) of 6.5 µg/mL (≈ 26.3 µM).
With `Nc1nc2c(ncn2[C@@H]2O[C@H](CO)CC2(F)F)c(=O)[nH]1` [Example 3, β-1-(2-amino-6-oxo-9H-purin-9-yl)-2,3-dideoxy-2,2-difluororibose] the IC50 [1] was 8.5 µg/mL (≈ 29.6 µM) and the inhibition at 25 µg/mL (HSV-2; Human alphaherpesvirus 2, concentration 25 ug/ml) was 21%.
For `Cc1cn([C@@H]2O[C@H](CO)CC2(F)F)c(=O)[nH]c1=O` [Example 5, β-1-(5-methyl-2,4-dioxo-1H,3H-pyrimidin-1-yl)-2,3-dideoxy-2,2-difluororibose], the IC50 [1] was > 20 µg/mL and the Inhibition (HSV-1; concentration 25 (unit ug/ml)) was 35%.
